Reference: PubChem BioAssay (NCI)
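These data come from cells grown in 96-well plates and exposed to compound for 48 hours at five concentrations. GI50 marks 50% less growth. TGI is the concentration that stops growth completely.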

Assays:
Assay in all cases: DTP human tumour cell line panel, 48 h
PC-3 prostate = system: PC-3 prostate
LOX IMVI melanoma = system: LOX IMVI melanoma
IGROV1 ovarian = system: IGROV1 ovarian
OVCAR-3 ovarian = system: OVCAR-3 ovarian
OVCAR-5 ovarian = system: OVCAR-5 ovarian
CAKI-1 renal = system: CAKI-1 renal
NCI/ADR-RES ovarian = system: NCI/ADR-RES ovarian
SW-620 colon = system: SW-620 colon
HCC-2998 colon = system: HCC-2998 colon
DU-145 prostate = system: DU-145 prostate

Row | SMILES | GI50 (PC-3 prostate) [µM] | TGI (PC-3 prostate) [µM] | GI50 (LOX IMVI melanoma) [µM] | TGI (LOX IMVI melanoma) [µM] | GI50 (IGROV1 ovarian) [µM] | TGI (IGROV1 ovarian) [µM] | GI50 (OVCAR-3 ovarian) [µM] | TGI (OVCAR-3 ovarian) [µM] | GI50 (OVCAR-5 ovarian) [µM] | TGI (OVCAR-5 ovarian) [µM] | GI50 (CAKI-1 renal) [µM] | TGI (CAKI-1 renal) [µM] | GI50 (NCI/ADR-RES ovarian) [µM] | TGI (NCI/ADR-RES ovarian) [µM] | GI50 (SW-620 colon) [µM] | TGI (SW-620 colon) [µM] | GI50 (HCC-2998 colon) [µM] | TGI (HCC-2998 colon) [µM] | GI50 (DU-145 prostate) [µM] | TGI (DU-145 prostate) [µM]
1 | COc1ccc(-c2ccc3c(NC(=O)C4CC4)n[nH]c3n2)cc1 | > 25 | > 25 | > 25 | > 25 | > 25 | > 25 | > 25 | > 25 | > 25 | > 25 | > 25 | > 25 | > 25 | > 25 | > 25 | > 25 | > 25 | > 25 | > 25 | > 25
2 | COc1ccc(-c2ccc(/C=C/C(=O)NO)cc2)cc1 | 1.09 | 12.3 | 0.417 | 2.61 | 0.768 | 9.66 | 0.518 | 2.76 | 1.74 | 17.7 | 1.42 | 6.11 | 0.533 | 3.22 | 0.754 | > 100 | 0.662 | 7.92 | 0.394 | 4.45
3 | COc1cc(-c2cc(-c3ccc(N(C)C)cc3)nc(N3CCOCC3)c2C#N)cc(OC)c1OC | 2.06 | > 100 | 0.0676 | 0.225 | 0.727 | 70 | 12.9 | > 83.2 | 0.248 | > 100 | 0.333 | > 33.8 | 0.246 | > 91.4 | 2.02 | > 100 | 2.53 | 21.3 | 9.12 | > 100
4 | O=C(NCc1cccnc1)/C(=C\c1ccc(Br)cc1)S(=O)(=O)c1ccccc1 | 1.06 | 2.61 | 0.45 | 1.73 | 0.636 | 2.11 | 0.419 | 1.7 | 0.929 | 2.33 | 1.02 | 2.22 | 1.75 | 5.43 | 0.416 | 1.85 | 1.51 | 3 | 0.431 | 1.53
5 | COc1ccc(C(=O)c2cc(OC)c(OC)c(OC)c2)cc1OC(C)=O | 0.0208 | > 100 | 0.022 | > 100 | 0.272 | > 100 | 0.0292 | 0.0848 | 4.55 | > 100 | 0.0746 | > 100 | < 0.0153 | > 100 | < 0.0184 | > 100 | 0.04 | > 100 | 0.0324 | > 100
6 | CCCCCCCCCCCCn1c(C)nc2ccccc21 | 2.47 | 15.8 | 3.72 | 20.5 | 14.7 | 28.3 | 14.7 | 30.2 | 4.78 | 17.6 | 14 | 31.2 | 2.55 | 12.9 | 15.4 | 30.7 | 2.6 | 18 | 17.2 | 35.4
7 | COc1ccc(N2CCN(C(=O)c3ccccc3Nc3ccnc(C(F)(F)F)c3)CC2)cc1 | 18.7 | > 100 | 60.1 | > 100 | 13.7 | 93.6 | 28.5 | > 100 | > 100 | > 100 | 48.8 | > 100 | 23.8 | > 100 | > 100 | > 100 | > 100 | > 100 | > 100 | > 100
8 | S=c1nc(-c2nc(=S)[nH]c3c2CCCCCCCCCC3)c2c([nH]1)CCCCCCCCCC2 |  | > 100 |  | > 100 |  | > 100 |  | > 100 |  | > 100 |  | > 100 |  | > 100 |  | > 100 |  | > 100 |  | > 100
9 | S=c1nc[nH]c2c1ncn2Cc1ccco1 |  | > 100 |  | > 100 |  | > 100 |  | > 100 |  | > 100 |  | > 100 |  | > 100 |  | > 100 |  | > 100 |  | > 100
10 | COc1ccc(/C=C/c2c(C(=O)/C=C/c3ccc(Cl)cc3)c(C)nc3ccccc23)cc1 | 1.96 | 5.89 | 1.51 | 2.9 | 0.663 | 2.54 | 1.62 | 3.19 | 2.08 | 4.98 | 1.14 | 2.62 | 2.11 | 5.61 | 1.85 | 6.02 | 1.57 | 3.06 | 1.69 | 3.25
11 | Nc1ncnc2c1c(C(F)(F)F)cn2[C@@H]1O[C@H](CO)[C@@H](O)[C@H]1O | 0.0725 |  | 0.051 | > 100 | 0.619 | > 100 | 0.398 | > 100 | 1.02 | > 72.2 | 0.49 | > 100 | 0.363 | > 100 | 0.0644 | > 100 | 0.633 | 12.8 | 0.0945 | > 100
12 | O=C(c1ccccc1Nc1ccnc(C(F)(F)F)c1)N1CCN(c2cccc(Cl)c2)CC1 | 9.45 | 53 | 15.8 | 32.2 | 5.53 | 24 | 19 | > 80.9 | 27.9 | > 86.4 | 21 | 75 | 16.2 | 59.5 | 25 | > 100 | 24.6 | > 72.9 | 28.1 | > 100
